This note sets out measurements from patent publication US20260274829A1, “NEW E3 UBIQUITIN LIGASE LIGAND, PROTEIN DEGRADATION AGENT AND USE THEREOF” (GLUETACS THERAPEUTICS (SHANGHAI) CO., LTD., priority 2023, published 2026).

pIC50: −log10 of the molar value.

This experiment deals with T1, human Cereblon WT GST-tagged protein (Homo sapiens, UniProt Q96SW2).
T1 construct: purchased CISBIO 64BDCRBNPEH
T1 sequence (Q96SW2 whole entry): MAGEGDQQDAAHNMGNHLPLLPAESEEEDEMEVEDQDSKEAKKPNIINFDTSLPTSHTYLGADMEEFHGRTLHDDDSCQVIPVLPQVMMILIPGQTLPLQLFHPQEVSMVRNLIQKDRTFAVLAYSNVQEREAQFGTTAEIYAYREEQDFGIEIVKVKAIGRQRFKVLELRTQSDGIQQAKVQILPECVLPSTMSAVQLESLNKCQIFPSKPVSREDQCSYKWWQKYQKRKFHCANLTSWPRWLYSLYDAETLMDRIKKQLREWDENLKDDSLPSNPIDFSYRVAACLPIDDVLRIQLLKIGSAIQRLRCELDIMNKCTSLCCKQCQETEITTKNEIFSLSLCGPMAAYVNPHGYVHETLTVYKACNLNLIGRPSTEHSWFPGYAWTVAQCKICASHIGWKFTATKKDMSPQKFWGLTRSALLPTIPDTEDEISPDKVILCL
Kind of experiment: CRBN binding, HTRF CEREBLON BINDING kit. As to conditions: CRBN binding, HTRF CEREBLON BINDING kit. An outline of the steps: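 HTRF competition in which test compounds displace a Thalidomide-Re tracer from GST-tagged human Cereblon WT, detected with a GST Eu antibody. Incubation lasted 3 hours at room temperature, with emission read at 620 and 665 nm. Inhibition rate was derived from 665/620 ratios relative to blank and solvent control wells.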
What is called pIC50 is the IC50 on a negative log10 scale, so that one unit is a factor of ten. A high value points to a low IC50. As for `O=C1CCN(c2ccc(CN3C4CCC3CN(c3ccc(-c5cc(F)c6c(c5)C(=O)N(C(C(=O)Nc5nccs5)c5ncn7c5CCC7)C6)cc3)C4)nc2)C(=O)N1` (stereo not drawn) [GT-06255, 2-(6,7-dihydro-5H-pyrrolo[1,2-c]imidazol-1-yl)-2-(6-(4-(8-((5-(2,4-dioxotetrahydropyrimidin-1(2H)-yl)pyridin-2-yl)methyl)-3,8-diazabicyclo[3.2.1]octan-3-yl)phenyl)-4-fluoro-1-oxoisoindolin-2-yl)-N-(thiazol-2-yl)acetamide], the pIC50 is above 6.30.

`O=C1CCC(c2ccc(CN3CCN(C4CCN(c5ccc(-c6cc(F)c7c(c6)C(=O)N(C(C(=O)Nc6nccs6)c6ncn8c6CCC8)C7)cc5)CC4(F)F)CC3)cc2)C(=O)N1` (stereo not drawn) [GT-06317, 2-(6,7-dihydro-5H-pyrrolo[1,2-c]imidazol-1-yl)-2-(6-(4-(4-(4-(4-(2,6-dioxopiperidin-3-yl)benzyl)piperazin-1-yl)-3,3-difluoropiperidin-1-yl)phenyl)-4-fluoro-1-oxoisoindolin-2-yl)-N-(thiazol-2-yl)acetamide] gave a pIC50 of 5.72 to 6.00. `O=C1CCN(c2ccc(CN3CCN(C4CCN(c5ccc(-c6cc(F)c7c(c6)C(=O)N(C(C(=O)Nc6nccs6)c6ncn8c6CCC8)C7)cc5)CC4(F)F)CC3)cc2)C(=O)N1` (stereo not drawn) [GT-06318, 2-(6,7-dihydro-5H-pyrrolo[1,2-c]imidazol-1-yl)-2-(6-(4-(4-(4-(4-(2,4-dioxotetrahydropyrimidin-1(2H)-yl)benzyl)piperazin-1-yl)-3,3-difluoropiperidin-1-yl)phenyl)-4-fluoro-1-oxoisoindolin-2-yl)-N-(thiazol-2-yl)acetamide] showed a pIC50 of 5.72 to 6.00.

Consider `O=C1CCN(c2ccc(CN3CCN(C4CCN(c5ccc(-c6cc(F)c7c(c6)C(=O)N(C(C(=O)Nc6nccs6)c6ncn8c6CCC8)C7)cc5)CC4(F)F)CC3)nc2)C(=O)N1` (stereo not drawn) [GT-06319, 2-(6,7-dihydro-5H-pyrrolo[1,2-c]imidazol-1-yl)-2-(6-(4-(4-(4-((5-(2,4-dioxotetrahydropyrimidin-1(2H)-yl)pyridin-2-yl)methyl)piperazin-1-yl)-3,3-difluoropiperidin-1-yl)phenyl)-4-fluoro-1-oxoisoindolin-2-yl)-N-(thiazol-2-yl)acetamide], for which the pIC50 is above 6.30. In the case of `O=C1CCC(c2ccc(CN3CCC(N4CCN(c5ccc(-c6cc(F)c7c(c6)C(=O)N(C(C(=O)Nc6nccs6)c6ncn8c6CCC8)C7)cc5)CC4)CC3)cc2)C(=O)N1` (stereo not drawn) [GT-06326, 2-(6,7-dihydro-5H-pyrrolo[1,2-c]imidazol-1-yl)-2-(6-(4-(4-(1-(4-(2,6-dioxopiperidin-3-yl)benzyl)piperidin-4-yl)piperazin-1-yl)phenyl)-4-fluoro-1-oxoisoindolin-2-yl)-N-(thiazol-2-yl)acetamide], the pIC50 is 6.00 to 6.30.

With `O=C1CCN(c2ccc(CN3CCC(N4CCN(c5ccc(-c6cc(F)c7c(c6)C(=O)N(C(C(=O)Nc6nccs6)c6ncn8c6CCC8)C7)cc5)CC4)CC3)cc2)C(=O)N1` (stereo not drawn) [GT-06327, 2-(6,7-dihydro-5H-pyrrolo[1,2-c]imidazol-1-yl)-2-(6-(4-(4-(1-(4-(2,4-dioxotetrahydropyrimidin-1(2H)-yl)benzyl)piperidin-4-yl)piperazin-1-yl)phenyl)-4-fluoro-1-oxoisoindolin-2-yl)-N-(thiazol-2-yl)acetamide], the pIC50 was 6.00 to 6.30.

In turn, `O=C1CCN(c2cccc(CN3CCC(N4CCN(c5ccc(-c6cc(F)c7c(c6)C(=O)N(C(C(=O)Nc6nccs6)c6ncn8c6CCC8)C7)cc5)CC4)CC3)c2)C(=O)N1` (stereo not drawn) [GT-06328, 2-(6,7-dihydro-5H-pyrrolo[1,2-c]imidazol-1-yl)-2-(6-(4-(4-(1-(3-(2,4-dioxotetrahydropyrimidin-1(2H)-yl)benzyl)piperidin-4-yl)piperazin-1-yl)phenyl)-4-fluoro-1-oxoisoindolin-2-yl)-N-(thiazol-2-yl)acetamide] had a pIC50 of 6.00 to 6.30. `O=C1CCN(c2ccc(CN3CCC(N4CCN(c5ccc(-c6cc(F)c7c(c6)C(=O)N(C(C(=O)Nc6nccs6)c6ncn8c6CCC8)C7)cc5)CC4)CC3)nc2)C(=O)N1` (stereo not drawn) [GT-06329, 2-(6,7-dihydro-5H-pyrrolo[1,2-c]imidazol-1-yl)-2-(6-(4-(4-(1-((5-(2,4-dioxotetrahydropyrimidin-1(2H)-yl)pyridin-2-yl)methyl)piperidin-4-yl)piperazin-1-yl)phenyl)-4-fluoro-1-oxoisoindolin-2-yl)-N-(thiazol-2-yl)acetamide] had a pIC50 of 5.72 to 6.00.

For `O=C1CCC(Nc2cccc(CN3CCC(N4CCN(c5ccc(-c6cc(F)c7c(c6)C(=O)N(C(C(=O)Nc6nccs6)c6ncn8c6CCC8)C7)cc5)CC4)CC3)c2)C(=O)N1` (stereo not drawn) [GT-06331, 2-(6,7-dihydro-5H-pyrrolo[1,2-c]imidazol-1-yl)-2-(6-(4-(4-(1-(3-((2,6-dioxopiperidin-3-yl)amino)benzyl)piperidin-4-yl)piperazin-1-yl)phenyl)-4-fluoro-1-oxoisoindolin-2-yl)-N-(thiazol-2-yl)acetamide], the negative-log IC50 (pIC50) is 5.72 to 6.00. `CN(C)C(=O)c1cc2cnc(Nc3ccc(N4CCN(Cc5ccc(C6CCC(=O)NC6=O)cc5)CC4)cn3)nc2n1C1CCCC1` (stereo not drawn) [GT-06339, 7-cyclopentyl-2-((5-(4-(4-(2,6-dioxopiperidin-3-yl)benzyl)piperazin-1-yl)pyridin-2-yl)amino)-N,N-dimethyl-7H-pyrrolo[2,3-d]pyrimidine-6-carboxamide]: the pIC50 was above 6.30. On to `CN(C)C(=O)c1cc2cnc(Nc3ccc(N4CCN(Cc5ccc(N6CCC(=O)NC6=O)cc5)CC4)cn3)nc2n1C1CCCC1` [GT-06340, 7-cyclopentyl-2-((5-(4-(4-(2,4-dioxotetrahydropyrimidin-1(2H)-yl)benzyl)piperazin-1-yl)pyridin-2-yl)amino)-N,N-dimethyl-7H-pyrrolo[2,3-d]pyrimidine-6-carboxamide], for which the pIC50 was 6.00 to 6.30.

The molecule `CN(C)C(=O)c1cc2cnc(Nc3ccc(N4CCN(Cc5cccc(N6CCC(=O)NC6=O)c5)CC4)cn3)nc2n1C1CCCC1` [GT-06341, 7-cyclopentyl-2-((5-(4-(3-(2,4-dioxotetrahydropyrimidin-1(2H)-yl)benzyl)piperazin-1-yl)pyridin-2-yl)amino)-N,N-dimethyl-7H-pyrrolo[2,3-d]pyrimidine-6-carboxamide] had a pIC50 of 6.00 to 6.30. In the case of `CN(C)C(=O)c1cc2cnc(Nc3ccc(N4CCN(Cc5ccc(N6CCC(=O)NC6=O)cn5)CC4)cn3)nc2n1C1CCCC1` [GT-06342, 7-cyclopentyl-2-((5-(4-((5-(2,4-dioxotetrahydropyrimidin-1(2H)-yl)pyridin-2-yl)methyl)piperazin-1-yl)pyridin-2-yl)amino)-N,N-dimethyl-7H-pyrrolo[2,3-d]pyrimidine-6-carboxamide], the pIC50 is 5.72 to 6.00. Under `Cc1ccc(-c2c(C)noc2C)cc1N(CC1CCN(Cc2ccc(N3CCC(=O)NC3=O)cn2)CC1)c1ccc(C2(C#N)CC2)cc1` [GT-06411, 1-(4-((5-(3,5-dimethylisoxazol-4-yl)-2-methylphenyl)((1-((5-(2,4-dioxotetrahydropyrimidin-1(2H)-yl)pyridin-2-yl)methyl)piperidin-4-yl)methyl)amino)phenyl)cyclopropane-1-carbonitrile] stands 6.00 to 6.30.

The molecule `Cn1cc(-c2cc(S(C)(=O)=O)ccc2OCc2ccc(C3CCC(=O)NC3=O)cc2)c2cc[nH]c2c1=O` (stereo not drawn) [GT-06415, 3-(4-((2-(6-methyl-7-oxo-6,7-dihydro-1H-pyrrolo[2,3-c]pyridin-4-yl)-4-(methylsulfonyl)phenoxy)methyl)phenyl)piperidine-2,6-dione] showed a pIC50 above 6.30. `Cn1cc(-c2cc(S(C)(=O)=O)ccc2OCc2ccc(N3CCC(=O)NC3=O)cn2)c2cc[nH]c2c1=O` [GT-06416, 1-(6-((2-(6-methyl-7-oxo-6,7-dihydro-1H-pyrrolo[2,3-c]pyridin-4-yl)-4-(methylsulfonyl)phenoxy)methyl)pyridin-3-yl)dihydropyrimidine-2,4(1H,3H)-dione]: the pIC50 is 5.72 to 6.00. In turn, `CN(C)C(=O)c1cc2cnc(Nc3ccc(N4CCC(N(C)Cc5ccc(C6CCC(=O)NC6=O)cc5)CC4)cn3)nc2n1C1CCCC1` (stereo not drawn) [GT-06490, 7-cyclopentyl-2-((5-(4-((4-(2,6-dioxopiperidin-3-yl)benzyl)(methyl)amino)piperidin-1-yl)pyridin-2-yl)amino)-N,N-dimethyl-7H-pyrrolo[2,3-d]pyrimidine-6-carboxamide] showed a pIC50 of 6.00 to 6.30. In the case of `CN(C)C(=O)c1cc2cnc(Nc3ccc(N4CCC(N(C)Cc5ccc(N6CCC(=O)NC6=O)cc5)CC4)cn3)nc2n1C1CCCC1` [GT-06491, 7-cyclopentyl-2-((5-(4-((4-(2,4-dioxotetrahydropyrimidin-1(2H)-yl)benzyl)(methyl)amino)piperidin-1-yl)pyridin-2-yl)amino)-N,N-dimethyl-7H-pyrrolo[2,3-d]pyrimidine-6-carboxamide], the pIC50 was 6.00 to 6.30. On to `CN(C)C(=O)c1cc2cnc(Nc3ccc(N4CCC(N(C)Cc5cccc(N6CCC(=O)NC6=O)c5)CC4)cn3)nc2n1C1CCCC1` [GT-06492, 7-cyclopentyl-2-((5-(4-((3-(2,4-dioxotetrahydropyrimidin-1(2H)-yl)benzyl)(methyl)amino)piperidin-1-yl)pyridin-2-yl)amino)-N,N-dimethyl-7H-pyrrolo[2,3-d]pyrimidine-6-carboxamide], for which the pIC50 was 5.72 to 6.00. Under `CN(C)C(=O)c1cc2cnc(Nc3ccc(N4CCC(N(C)Cc5ccc(N6CCC(=O)NC6=O)cn5)CC4)cn3)nc2n1C1CCCC1` [GT-06493, 7-cyclopentyl-2-((5-(4-(((5-(2,4-dioxotetrahydropyrimidin-1(2H)-yl)pyridin-2-yl)methyl)(methyl)amino)piperidin-1-yl)pyridin-2-yl)amino)-N,N-dimethyl-7H-pyrrolo[2,3-d]pyrimidine-6-carboxamide] stands 6.00 to 6.30; under `CC(=O)c1c(C)c2cnc(Nc3ccc(N4CCN(Cc5ccc(C6CCC(=O)NC6=O)cc5)CC4)cn3)nc2n(C2CCCC2)c1=O` (stereo not drawn) [GT-06575, 3-(4-((4-(6-((6-acetyl-8-cyclopentyl-5-methyl-7-oxo-7,8-dihydropyrido[2,3-d]pyrimidin-2-yl)amino)pyridin-3-yl)piperazin-1-yl)methyl)phenyl)piperidine-2,6-dione], 6.00 to 6.30.
